Measurements as given in patent US20090203877A1, “X-RAY-DENSE CONJUGATE” (Eberhard-Karls-Universitaet Tuebingen Universitaetsklinkum, priority 2006, published 2009).
“Also recorded” adds a separate entry of the source.

Test system: human malignant U373 glioma cells
Assay: Uptake/staining of cells by FITC-labelled conjugates (fluorescence microscopy, CLSM, FACS, semi-thin sections)
Assay type: cell-based
Conditions: for strongly labeled (heavily stained) cells, FACS: 20 min incubation; for stained cells: 260 μM in PBS, 20 min (experiments with conjugates 9-15)
Experimental: Fluorescence was measured in a Becton Dickinson FACSCalibur. […] The investigations were performed in triplicate.
For CT and FACS human U373 glioma cells were grown under the same conditions in 75 cm^2 culture flasks (Corning Costar, Bodenheim, Germany) (70% confluency). Accutase™ (PAA laboratories, Pasching, Austria) was added to achieve detachment of the cells which were harvested and subsequently aliquoted into Eppendorf tubes (6×10^6 cells per tube). As in the investigations performed by fluorescence microscopy, the cells in the first tube served as a control (PBS only). The cells in the other tubes were incubated with 260 μM Ultravist, 260 μM TIBA in PBS and 26 μM, 260 μM and 2.6 mM conjugates 1-4 in PBS. After a 20 minute incubation period at 37° C. in an atmosphere of 5% CO2, the cells were washed three times in PBS and centrifuged at 800 rpm for 5 minutes.
The FACS analysis was performed as described under 1.4.
The human malignant U373 and LN18 glioma cells were cultivated in 75 cm^2 culture flasks (Corning Costar) (70% confluency) under the conditions as described under 1.4, detached from the flask bottom with Accutase™ (PAA Laboratories) and in the following distributed on Eppendorf tubes (Eppendorf, Hamburg, Germany) (6×10^6 per tube). The cells in the first tube serve as a control (only PBS buffer only). The cells in the other ten tubes were each incubated with benzoic acid (BA), monoiodobenzoic acid (MIBA) or diiodobenzoic acid (DIBA) alone (260 μM), conjugate 3 alone (260 μM), conjugate 3 plus either BA, MIBA or DIBA (260 μM), respectively, and the conjugates 9, 10, and 11 alone. (260 μM).
After an incubation of 20 minutes at 37° C./5% CO2 the cells were washed three times with PBS buffer and centrifuged at 800 rpm (rounds per minute) for 5 minutes. The fluorescence was measured in Becton Dickinson FACSCalibur as described under 1.4. The computer tomography was performed as described under 1.5.1. The examinations were repeated two times.
For the CT and FACS examinations human LN-18 and U373 glioma cells were cultivated in 75 cm^2 culture flasks (Corning Costar) (70% confluency) (conditions as described under 1.4). Accutase™ (PAA Laboratories) was added to detach the cells from the bottom of the culture flasks. The cells were collected and then distributed on Eppendorf tubes (6×10^6 cells per tube). The cells in the first two tubes serve as a control (in each case only PBS, LN18 and U373 glioma cells, native). The cells in the other tubes (in each case LN18 and U373 glioma cells) were incubated with a 260 μM or 2.6 mM solution of the conjugate 12 for 20 minutes at 37° C. and 5% CO2 and in the following washed for three times with PBS buffer and centrifuged for 5 minutes with 800 rpm (rounds per minute). For a small amount of the cells it was tested by the MMT test (see 1.4) how many of the cells were still viable. The computer tomography of the cell centrifuges was performed with the Somatom Sensation 16 (Siemens).
The FACS analysis was performed as described under 1.4. The assay was repeated two times.
For the CT and FACS examinations human LN18 and U373 glioma cells were cultivated in 75 cm^2 culture flasks (70% confluency) (conditions as described under section 1). Accutase™ (PAA Laboratories) was added to detach the cell from the culture bottom. The cells were collected and then distributed on Eppendorf-tubes (6×10^6 cells per tube). […] The next three tubes were used for the coincubation of the cells either with trichlorobenzoic acid (TCBA), trifluorobenzoic acid (TFBA) or tribromophenyl Isocyanat (TBPI) and the NLS-FITC-conjugate 3 (260 μM). As control cells were used which were only either incubated with CIBA, FIBA, TBPI (in each case 260 μM in PBS) or with PBS-buffer (native control) alone. […] The computer tomography and FACS analysis of the cell centrifuges were performed as described in 1.5.1 or 1.4, respectively for three times. […]

Row | Substance | strongly labeled (heavily stained) cells, FACS (26 μM) | staining of cell nuclei (CLSM overview) (260 μM) | strongly labeled (heavily stained) cells, FACS (260 μM) | strongly labeled (heavily stained) cells, FACS (2.6 mM) | staining of nucleoli in semi-thin sections (about 0.4 μm) (fluorescence microscopy after incubation) | stained cells | number of stained cells / cellular staining rate (conjugate co-incubated with free TIBA (260 μM))
1 | PKKKRKVK(FITC)GGK(TIBA) (FITC, GGK linker, TIBA) [conjugate 1, FITC-labelled correct NLS of the SV 40 T antigen with TIBA] | 32% | A very large number of cell nuclei has been stained | 32% | 93% | clearly stained | – | –
2 | PKKKRKVK(FITC)GGK (FITC, GGK linker) [conjugate 3, FITC-labelled correct NLS of the SV 40 T antigen without TIBA] | 6% | – | 7% | 10% | – | 8% | not associated with a higher cellular staining rate; also recorded: did not result in any changes
3 | PKKKRKVK(FITC)GGK(BA) (FITC, GGK linker, benzoic acid) [conjugate 9, FITC-labelled NLS of the SV 40 T antigen with non-iodized benzoic acid] | – | – | – | – | – | 8% | –
